Assay results from patent US20140112992A1, “PROCESS FOR FEBUXOSTAT” (HETERO RESEARCH FOUNDATION, priority 2011, published 2014).

Assays:
[1] = Particle size distribution (D50) by laser diffraction, Sympatec Helos; assay type: physicochemical
Text: The term “Particle Size Distribution (P.S.D.)” means the cumulative volume size distribution of equivalent spherical diameters as determined by laser diffraction at 1 bar dispersive pressure in Sympatec Helos equipment. “Mean particle size distribution, i.e., D50” correspondingly, means the median of said particle size distribution.

levels of uric acid = conditions: compared to allopurinol; cited from earlier work

| SMILES | D50 (mean particle size distribution) ([1]; after grinding for 5 to 10 minutes) [μm] | D50 (mean particle size distribution) ([1]; before grinding, in µm (unit assumed)) | amount of initial gout flares or surface area of gout tophi (levels of uric acid) | individuals with decreased levels of uric acid (levels of uric acid) |
| --- | --- | --- | --- | --- |
| Cc1nc(-c2ccc(OCC(C)C)c(C#N)c2)sc1C(=O)O [Febuxostat crystalline Form H1, 2-[3-cyano-4-(2-methylpropoxy)phenyl]-4-methyl-5-thiazolecarboxylic acid] | 2.15 | 322.46 |  |  |
| Cc1nc(-c2ccc(OCC(C)C)c(C#N)c2)sc1C(=O)O [febuxostat, 2-[3-cyano-4-(2-methylpropoxy)phenyl]-4-methyl-5-thiazolecarboxylic acid] |  |  | no difference | more individuals treated with febuxostat had decreased levels of uric acid |
